Source: article PMC5399635 (The Journal of Pharmacology and Experimental Therapeutics, 2017)
Counter-ions that a name gives are not always drawn. Like-named read-outs stand apart in the source and are kept apart here.

Tests used:
[1] = biological target: T1, rat κ-opioid receptor (Rattus norvegicus, UniProt P34975); assay: Radioligand binding, κ-opioid receptor ([3H]U69593); settings: cloned rat κ-opioid receptors; read-out: geometric mean Ki
T1 construct: expressed in transfected cells; host or cells: CHO cells
Method: Competitive inhibition studies were performed on cloned opioid receptors expressed in membranes of Chinese hamster ovary (CHO) cells and conducted in triplicate (n = 3 independent experiments).
Radioligand binding assays were performed to evaluate the ability of these agents to inhibit specific radioligand binding to cloned opioid receptor subtypes. Half-maximal inhibitory concentration (IC50), equilibrium dissociation constant for the inhibitor (Ki), and negative log of the equilibrium dissociation constant for the inhibitor (pKi) values were obtained. The receptor binding methods used for µ ([Zhang et al., 1998])-, δ ([Simonin et al., 1994])-, and κ ([Meng et al., 1993])-opioid receptors have been described previously, with the exception that 100 mM NaCl was added to the incubation buffer in the µ-opioid receptor binding assay. All assays were conducted in 200-µl volume. All assay incubations were terminated by filtration, and bound radioligand was quantitated by liquid scintillation spectrometry. The IC50 values were determined by nonlinear regression analysis of the competition curves generated with the mean of duplicate values using Hill equation curve fitting. The inhibition constants (Ki) were calculated using the Cheng-Prusoff equation. The pKi results from three independent experiments were analyzed for significant differences by one-way analysis of variance (ANOVA) followed by Bonferroni multiple comparison test.

[2] = biological target: T2, human µ-opioid receptor (Homo sapiens, UniProt P35372); assay: Radioligand binding, µ-opioid receptor ([3H]diprenorphine); set-up: expressed in transfected cells; b18 says CHO cells; settings: read-out: geometric mean Ki
[3] = biological target: T2, human µ-opioid receptor; assay: [35S]GTPγS binding, Schild-type antagonism of morphine (CHO-K1 membranes)
[4] = In situ rat brain perfusion model; settings: 30 s perfusion, test compound 20 μM, atenolol 50 μM, antipyrine 5 μM, mean ± S.D.
[5] = in vitro; settings: human
[6] = tested on: morphine-induced inhibition of gastrointestinal transit; assay: Gastrointestinal transit model (charcoal meal), antagonism of morphine
[7] = tested on: morphine-induced antinociception; assay: Hot plate model of nociception, antagonism of morphine
[8] = rat, in vivo, 30 s, 20 μM, pH 7.4

T2 sequence (P35372 whole entry): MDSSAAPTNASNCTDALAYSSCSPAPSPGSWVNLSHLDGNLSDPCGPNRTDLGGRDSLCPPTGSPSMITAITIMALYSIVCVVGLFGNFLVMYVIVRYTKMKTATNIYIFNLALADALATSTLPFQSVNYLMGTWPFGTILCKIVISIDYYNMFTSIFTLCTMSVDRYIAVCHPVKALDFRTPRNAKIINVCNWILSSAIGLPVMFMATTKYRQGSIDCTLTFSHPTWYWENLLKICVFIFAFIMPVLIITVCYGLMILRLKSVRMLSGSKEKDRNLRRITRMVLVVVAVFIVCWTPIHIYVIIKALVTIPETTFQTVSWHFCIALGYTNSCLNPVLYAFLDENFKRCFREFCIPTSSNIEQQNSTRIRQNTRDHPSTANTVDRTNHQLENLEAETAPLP
T1 sequence (P34975 whole entry): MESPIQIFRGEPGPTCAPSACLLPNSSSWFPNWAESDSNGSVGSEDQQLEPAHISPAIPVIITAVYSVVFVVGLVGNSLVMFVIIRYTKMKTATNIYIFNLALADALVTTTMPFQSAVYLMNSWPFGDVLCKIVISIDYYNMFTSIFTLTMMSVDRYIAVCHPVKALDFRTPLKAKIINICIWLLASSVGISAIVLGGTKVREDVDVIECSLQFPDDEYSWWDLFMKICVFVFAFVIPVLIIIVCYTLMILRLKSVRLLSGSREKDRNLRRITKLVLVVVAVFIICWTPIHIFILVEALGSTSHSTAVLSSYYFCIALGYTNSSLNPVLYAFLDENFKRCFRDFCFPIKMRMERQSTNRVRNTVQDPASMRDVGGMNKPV

## C[N@+]1(CC2CC2)CC[C@]23c4c5ccc(O)c4O[C@H]2C(=O)CC[C@@]3(O)[C@H]1C5 [Methylnaltrexone, Methylnaltrexone bromide]
[1]
  Ki: 10.9 nM
[2]
  Ki: 22.1 nM
[3]
  Kb: 37 nM
[3]; versus morphine, 3 independent experiments
  pA2: 7.43 ± 0.02
[3]; versus morphine, pooled 3 experiments
  Schild slope: –0.982

## C=CCN1CC[C@]23c4c5ccc(O)c4O[C@H]2C(=O)CC[C@@]3(O)[C@H]1C5 [Naloxone, naloxone hydrochloride, reference compound]
[4]
  Brain Uptake: 60.2 ± 13.7 pmol/g brain/s
[5]; Caco-2, pH 7.4, Papp A→B, no P-gp inhibitor, mean of 3 experiments
  Papp A→B at 2 h, 10 μM: 27.3 ×10⁻⁶ cm/s
[5]; Caco-2, pH 7.4, Papp B→A, no P-gp inhibitor, mean of 3 experiments
  Papp B→A at 2 h, 10 μM: 25 ×10⁻⁶ cm/s
[5]; Caco-2, pH 7.4, with cyclosporin A, Papp A→B, Cyclosporin A
  Papp A→B at 2 h, 10 μM: 28.4 ×10⁻⁶ cm/s
[5]; Caco-2, pH 7.4, with cyclosporin A, Papp B→A, Cyclosporin A
  Papp B→A at 2 h, 10 μM: 23.7 ×10⁻⁶ cm/s
[5]; Caco-2, pH 7.4, with elacridar, 0.5 μM, Papp A→B, Elacridar
  Papp A→B at 2 h, 10 μM: 24.8 ×10⁻⁶ cm/s
[5]; Caco-2, pH 7.4, with elacridar, 0.5 μM, Papp B→A, Elacridar
  Papp B→A at 2 h, 10 μM: 27.3 ×10⁻⁶ cm/s
[5]; Caco-2, pH 7.4, with verapamil, 100 μM, Papp A→B, Verapamil
  Papp A→B at 2 h, 10 μM: 24.5 ×10⁻⁶ cm/s
[5]; Caco-2, pH 7.4, with verapamil, 100 μM, Papp B→A, Verapamil
  Papp B→A at 2 h, 10 μM: 24.9 ×10⁻⁶ cm/s
[6]; GI transit assay, rat
  oral dose that completely reversed the effect of morphine: ≥ 10 mg/kg
[6]; Rattus norvegicus, read-out: ED50, antagonism of morphine in GI transit
  ED50: 0.69 mg/kg
[7]; Rattus norvegicus, po, read-out: ED50, antagonism of morphine analgesia
  ED50: 1.14 mg/kg
[7]; hot plate assay, rat
  oral dose that completely reversed the analgesic effect of morphine: ≥ 10 mg/kg

## Cc1cc(=O)n(-c2ccccc2)n1C [Antipyrine, antipyrine]
[8]
  Brain Uptake: 28.2 ± 14.3 pmol/g brain/s
